In patent EP4692072A1, “PHOTOCHROMIC COMPOUND, PROPARGYL ALCOHOL COMPOUND, CURABLE COMPOSITION, OPTICAL ARTICLE, LENS, AND SPECTACLES” (TOKUYAMA CORPORATION, priority 2023, dated 2024) one finds A23, Maximum absorption wavelength and Residual rate data, which are given here for 11 compounds.

The nature of data set [1]: Photochromic properties of photochromic cured product prepared by kneading method. The class given is physicochemical. The following applies: 0.106 mmol per 100 g monomer; for A23: 1 mm cured product, 23°C color optical density ε(300)-ε(0); for Maximum absorption wavelength: 1 mm thiourethane cured product, after color development. Here is the method:
(§1) • [1] Maximum Absorption Wavelength (λmax): The maximum absorption wavelength after color development, measured using a spectrophotometer (instantaneous multichannel photodetector MCPD3000) manufactured by Otsuka Electronics Co., Ltd. was used as an indicator for the color tone during the color development. • [2] 23°C Color Optical Density (A23): A difference between an absorbancy measured after light irradiation at 23°C for 300 seconds {ε(300)} and an absorbancy without light irradiation ε(0) at the maximum absorption wavelength was used as an indicator for the color optical density. […] 23°C color fading half-life [τ1/2 (sec.)]: A time required for the absorbancy of the sample at the maximum absorption wavelength to decrease to 1/2 of {ε(300)-ε(0)} when the light irradiation was terminated after the light irradiation at 23°C for 300 seconds, was used as an indicator for the color fading speed. The shorter this time, the higher the color fading speed. • [4] Residual rate (A120/A0×100): The obtained photochromic plastic lens was subjected to accelerated deterioration using a xenon weather meter X25 manufactured by Suga Test Instruments Co., Ltd. for 120 hours. Subsequently, the color optical density was evaluated before and after the test, then a color optical density before the test (A0) and a color optical density after the test (A120) were measured, and a ratio (A120/A0) was defined as a residual rate. The residual rate was used as an indicator for a color developing durability. The higher the residual rate, the higher the color developing durability. The results of Examples 26, 50, and Comparative Examples 1 to 8 are summarized in Table 1, and the results of Examples 27 to 49 are summarized in Tables 2 and 3.
First, the photochromic compound obtained in Example 1, additives, and a polymerizable compound were mixed to obtain a curable composition.
As the polymerizable compound, a combination of the following polymerizable monomers was used. • 1,3-bis(isocyanatomethyl)cyclohexane: 36.7 parts by mass Pentaerythritol tetrakis(3-mercaptopropionate): 39.4 parts by mass • Polyoxyethylene polyoxypropylene lauryl ether (Wonder Surf 140 manufactured by Aoki Oil Industrial Co., Ltd.): 17.4 parts by mass • 1-decanethiol: 2.8 parts by mass • RX-1 adjusted according to the method described in Patent Document 13: 3.8 parts by mass
Note that the photochromic compound was added to the curable composition so that the amount of the photochromic compound was 0.106 mmol based on 100 g of the total amount of the polymerizable monomer. The following additives were used: Dimethyltin dichloride • : 0.05 part by mass • Irganox 245: 0.1 part by mass • 2-ethylhexyl 4-methoxycinnamate: 0.6 part by mass
The prepared curable composition was thoroughly defoamed, then injected into a glass mold having a 1 mm gap, and polymerized by cast polymerization. The polymerization was carried out in an air furnace while gradually raising the temperature from 27°C to 120°C over 18 hours. After the polymerization, the cured product was removed from the glass mold to obtain a photochromic cured product having a thickness of 1 mm. The obtained photochromic cured product was evaluated in the same manner as in Example 26.
(Examples 85 to 99, and Comparative Example 14 to 18) Photochromic cured products were prepared using photochromic compounds presented in Tables 6 and 7 in the same manner as in Example 84. The results of Examples 84 and 85 and Comparative Examples 14 to 18 are summarized in Table 6, and the results of Examples 86 to 99 are summarized in Table 7.

Data set [2] is described as follows: Accelerated deterioration (xenon weather meter X25, 120 hours) of photochromic laminate prepared by coating method. The class given is physicochemical. Particulars: 0.25 mmol per 100 g monomers, A120/A0×100 after 120 hours xenon weather meter.
Source text: First, the photochromic compound obtained in Example 1, a photoinitiator, and a polymerizable compound were mixed to obtain a curable composition.
Polyethylene glycol dimethacrylate (average molecular weight: 736): 42 parts by mass • Polyethylene glycol dimethacrylate (average molecular weight: 536): 12 parts by mass • Trimethylolpropane trimethacrylate: 38 parts by mass γ-methacryloyloxypropyl trimethoxysilane: 2 parts by mass Glycidyl methacrylate: 1 part by mass
Note that the photochromic compound was added to the curable composition so that the amount of the photochromic compound was 0.25 mmol based on 100 g of the total amount of the radical-polymerizable monomers.
Phenylbis(2,4,6-trimethylbenzoyl)phosphine oxide (photoinitiator: Omnirad 819): 0.3 parts by mass Ethylene bis(oxyethylene) bis[3-(5-tert-butyl-4-hydroxy-m-tolyl)propionate] (stabilizer, Irganox 245): 1 part by mass Bis(1,2,2,6,6-pentamethyl-4-piperidyl) sebacate: 3 parts by mass Leveling agent (L7001) manufactured by Dow Corning Toray Co.,Ltd.: 0.1 part by mass
First, a thiourethane-based plastic lens having a central thickness of 2 mm and a refractive index of 1.60 was prepared as the optical substrate. Note that this thiourethane-based plastic lens was pre-treated by alkaline etching with a 10% sodium hydroxide aqueous solution at 50°C for 5 minutes, followed by sufficient washing with distilled water.
A surface of the above-described plastic lens was coated with a moisture-curable primer (product name: TR-SC-P, manufactured by Tokuyama Corporation) at a rotation frequency of 70 rpm for 15 seconds, followed by 1000 rpm for 10 seconds, using a spin coater (1H-DX2, manufactured by MIKASA CO., LTD), Subsequently, about 2 g of the photochromic curable composition obtained above was spin-coated at a rotation frequency of 60 rpm for 40 seconds, followed by 600 rpm for 10 to 20 seconds, to form a photochromic coating layer with a film thickness of 40 µm.
The lens with the surface coated with the photochromic curable composition (photochromic coating layer) was irradiated with light using a metal halide lamp with an output power of 200 mW/cm^2 in a nitrogen gas atmosphere for 90 seconds to cure the coating film. Subsequently, the lens was further heated at 110°C for 1 hour to prepare a photochromic laminate having a photochromic layer.
as §1, with “The results of Examples 26, 50, and Comparative Examples 1 to 8 are summarized in Table 1, and the results of Examples 27 to 49 are summarized in Tables 2 and 3.” left out

Each structure is given as a SMILES string.

Regarding `COc1ccc(C2(c3ccc(N(C)c4ccccc4)cc3)C=Cc3c4c(c5cc(-c6ccc(N7CCOCC7)cc6)c(OC)cc5c3O2)-c2ccccc2C4(C)C)cc1` (stereo not drawn) [Example 1], in data set [1], the A23 is 0.96 - and the Maximum absorption wavelength is reported as 503 nm. For the same compound, in data set [1] (listed as Formula (37)), the A23 is 1.06 - and the Maximum absorption wavelength is recorded as 610 nm. Besides, the Residual rate in data set [2] stood at 65%.
For `CCCC1(CCC)c2cc(OC)ccc2-c2c1c1c(c3cc(OC)ccc23)OC(c2ccc(OC)cc2)(c2ccc(N(C)c3ccccc3)cc2)C=C1` (stereo not drawn) [Example 3], in data set [1], the A23 is 0.59 - and the Maximum absorption wavelength is 472 nm. In data set [1] (listed as Formula (46)), the A23 is listed as 1.16 - and the Maximum absorption wavelength came out at 619 nm. In data set [2], this compound displayed a Residual rate of 55%.
Regarding `CCCc1ccc(C2(c3ccc(N(C)c4ccccc4)cc3)C=Cc3c4c(c5cc(Sc6c(C)cccc6C)c(OC)cc5c3O2)-c2ccccc2C42CC(C)(C)CC(C)(C)C2)cc1` (stereo not drawn) [Example 5], in data set [1], the A23 is given as 0.56 - and the Maximum absorption wavelength was found to be 511 nm. In addition, in data set [1] (listed as Formula (51)), the A23 was 0.69 - and the Maximum absorption wavelength turned out to be 598 nm. In data set [2], this compound gave a Residual rate of 68%.
In the case of `CCCC1(CCC)c2ccccc2-c2c1c1c(c3cc(OC)c(-c4ccc(OC)cc4OC)cc23)OC(c2ccc(N(C)c3ccccc3)cc2)(c2ccc(OC)c(F)c2)C=C1` (stereo not drawn) [Example 7], the A23 in data set [1] is 0.75 -; in data set [1] (listed as Formula (55)), 0.99 -. Also, the Maximum absorption wavelength amounted to 499 nm in data set [1] and 610 nm in data set [1] (listed as Formula (55)). This compound came in with a Residual rate in data set [2] of 61%.
`COCCOCCC1(CCOCCOC)c2cc(C)ccc2-c2c1c1c(c3cc(C)ccc23)OC(c2ccc(N(C)c3ccc(F)cc3)cc2)(c2ccc(OC)c(OC)c2)C=C1` (stereo not drawn) [Example 8]: in data set [1], the A23 is given as 0.51 - and the Maximum absorption wavelength is 476 nm. In data set [1] (listed as Formula (57)), the A23 is recorded as 1.24 - and the Maximum absorption wavelength is given as 604 nm. The compound also returned a Residual rate in data set [2] of 60%.
`CCCCN(c1ccccc1)c1ccc(C2(c3ccc(C)cc3)C=Cc3c4c(c5cc(N6CCOCC6)c(OC)cc5c3O2)-c2ccccc2C4(CC)CC)cc1` (stereo not drawn) [Example 10]: the A23 in data set [1] is listed as 1.41 -; in data set [1] (listed as Formula (62)), 1.09 -. Also, the Maximum absorption wavelength was 519 nm in data set [1] and 600 nm in data set [1] (listed as Formula (62)). The Residual rate in data set [2] is 60%; in data set [2] (listed as Formula (62)) it was 64%.
As for `COCCCCC1(CCCCOC)c2cc(Sc3c(C)cccc3C)ccc2-c2c1c1c(c3cc(OC)ccc23)OC(c2ccc(OC)cc2)(c2ccc(N(C)c3ccc(OC)cc3)cc2)C=C1` (stereo not drawn) [Example 11], the Residual rate in data set [2] was determined as 60%.
Turning to `COCCN(c1ccccc1)c1ccc(C2(c3ccc4c(c3)OCCO4)C=Cc3c4c(c5cc6c(cc5c3O2)SC(C)(C)O6)-c2ccccc2C42CCC3(CCCCC3)CC2)cc1` (stereo not drawn) [Example 14], in data set [1], the A23 is given as 0.59 - and the Maximum absorption wavelength was determined as 496 nm. For the same compound, in data set [1] (listed as Formula (71)), the A23 is on record as 0.65 - and the Maximum absorption wavelength is recorded as 590 nm. Moreover, the Residual rate in data set [2] is 63%.
With `COCCC1(CCOC)c2ccccc2-c2c1c1c(c3cc(OC)c(-c4ccc(N(c5ccccc5)c5ccccc5)cc4)cc23)OC(c2ccc(Oc3ccccc3)cc2)(c2ccc(N(C)c3ccccc3)cc2)C=C1` (stereo not drawn) [Example 23], the Residual rate in data set [2] came to 60%.
With `CCCCOCCC1(CCOCCCC)c2ccccc2-c2c1c1c(c3cc(OC)c(NC(=O)c4ccccc4)cc23)OC(c2ccc(N(C)c3ccccc3)cc2)(c2ccc(OC)c(F)c2)C=C1` (stereo not drawn) [Example 53], the Residual rate in data set [2] is reported as 58%; in data set [2] (listed as Formula (95)) it was 60%.
For `COc1ccc(N(C)c2ccc(C3(c4ccc(CCO[Si](C)(C)CC[Si](O[Si](C)(C)C)(O[Si](C)(C)C)O[Si](C)(C)C)cc4)C=Cc4c5c(c6cc(N(C)c7ccccc7)c(OC)cc6c4O3)-c3ccc(C(F)(F)F)cc3C53CCC(C)(C)CC3)cc2)cc1` (stereo not drawn) [Example 60], the values for the Residual rate in data set [2] and in data set [2] (listed as Formula (121)) were 62% and 64%, respectively.
